Reference: US9340577B2, “HLA binding motifs and peptides and their uses” (priority 1992, dated 2016)
No end group written: not given here.

Experiments:
Assay in all cases: biochemical
DR1 (DRB1*0101) = DR1 (DRB1*0101) (Homo sapiens, UniProt P01903+P01911, A100R/D57E/F55L/F60I/F76Y/I96L/L162R/M171V/P40L/Q125E/R42F/V115G/Y59C); format: binding
DR4w4 (DRB1*0401) = DR4w4 (DRB1*0401) (Homo sapiens, UniProt P01903+P01911, A100K/A169T/F76Y/I96L/K127E/L162R/M171V/N62H/P40V/Q125Y/R42H/S133A/S149N/S66Y/V115G/V209L/W38E); format: binding
DRB1*0301 = DRB1*0301 (Homo sapiens, UniProt P01903+P01911, A100K/A102G/A103R/A169T/F55Y/I96L/K41T/L162R/M171V/P40S/Q125H/Q178H/Q39Y/R42S/S66N/T106N/T262R/W38E/Y61H); format: binding
DRB1*0301, sequence (P01903 26-254 limits assumed, other chains not shown): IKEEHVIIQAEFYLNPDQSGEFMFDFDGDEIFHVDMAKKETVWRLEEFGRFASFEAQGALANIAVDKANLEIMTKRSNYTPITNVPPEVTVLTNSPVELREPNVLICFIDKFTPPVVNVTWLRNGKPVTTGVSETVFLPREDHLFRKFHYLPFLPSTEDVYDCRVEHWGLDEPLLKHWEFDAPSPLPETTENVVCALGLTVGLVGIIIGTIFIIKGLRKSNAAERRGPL

DRB1*0405 = DRB1*0405 (Homo sapiens, UniProt P01903+P01911, A100R/A169T/D86S/F76Y/I96L/K127E/L162R/M171V/N62H/P40V/Q125Y/R42H/S133A/S149N/S66Y/V115G/V209L/W38E); format: binding
DRB1*0802 = DRB1*0802 (Homo sapiens, UniProt P01903+P01911, A100R/A103L/A169T/F76Y/H45Y/I96F/K41T/L162R/M171V/P40S/Q125H/Q178H/Q39Y/Q99D/R218S/R42G/S66Y/V115G/W38E); format: binding
DRB1*0901 = DRB1*0901 (Homo sapiens, UniProt P01903+P01911, A100R/A103E/D57H/D86V/F55Y/F60I/F76Y/I96F/K127E/L162R/M171V/P40D/Q125H/Q99R/R33Q/R42F/S133A/S66N/T210M/V115G/W38K/Y107V/Y59G/Y89S); format: binding
DRB1*1201 = DRB1*1201 (Homo sapiens, UniProt P01903+P01911, A100R/A169T/D57E/D86V/F55L/H45Y/K41T/L162R/M171V/P40S/Q125H/Q178H/Q39Y/Q99D/R42G/S66L/T262R/V114A/V67L/W38E/Y59H/Y61H/Y89S); format: binding
DRB1*1501 = DRB1*1501 (Homo sapiens, UniProt P01903+P01911); format: binding
DRB4*0101 = DRB4*0101 (Homo sapiens, UniProt P01903+P13762, G164S); format: binding
DRB1*1101 = DRB1*1101 (Homo sapiens, UniProt P01903+P01911, A100R/A169T/A87E/I96F/K41T/L162R/M171V/P40S/Q125H/Q178H/Q39Y/Q99D/R42S/S66Y/T262R/V115G/W38E); settings: Binding affinity DRB1 *1101
DRB1*1101, sequence (P01903 26-254 limits assumed, other chains not shown): as above

DR7 (DRB1*0701) = DR7 (DRB1*0701) (Homo sapiens, UniProt P01903+P01911, A100R/A102G/A103Q/D57E/D86V/E43K/F76Y/K127E/L162R/M171V/P40G/Q125H/Q99D/R33Q/R42Y/R54Q/S133A/S66F/T210M/V115G/Y107V/Y59L/Y89S); format: binding
DRB1*1302 = DRB1*1302 (Homo sapiens, UniProt P01903+P01911, A100E/A169T/K41T/L162R/M171V/P40S/Q125H/Q178H/Q39Y/Q99D/R42S/S66N/T262R/V115G/W38E/Y61H); format: binding
DRB1*1302, sequence (P01903 26-254 limits assumed, other chains not shown): as above

DRB5*0101 = DRB5*0101 (Homo sapiens, UniProt P01903+Q30154); settings: Binding affinity DRB5 *0101

Compound	IC50 (DR1 (DRB1*0101))	IC50 (DR4w4 (DRB1*0401))	IC50 (DRB1*0301)	IC50 (DRB1*0405)	IC50 (DRB1*0802)	IC50 (DRB1*0901)	IC50 (DRB1*1201)	IC50 (DRB1*1501)	IC50 (DRB4*0101)	IC50 (DRB1*1101)	IC50 (DR7 (DRB1*0701))	IC50 (DRB1*1302)	IC50 (DRB5*0101)
LKAICIEKQSRAAKR [Peptide 90.0032]	0.259 µM	0.307 µM	0.021 µM	> 20 µM	0.273 µM	13.4 µM	11.8 µM	2.06 µM	0.029 µM	0.545 µM	–	–	–
YKTLFVDVTSTYHWT [Peptide 90.0241]	4.03 µM	0.075 µM	0.056 µM	0.549 µM	14.1 µM	2.23 µM	3.9 µM	–	> 20 µM	4.2 µM	0.647 µM	0.071 µM	5.5 µM
AKALQAIELQMMLET [Peptide 89.0171]	0.016 µM	0.078 µM	1.46 µM	0.798 µM	> 20 µM	0.084 µM	0.243 µM	8.48 µM	2.55 µM	2.4 µM	0.051 µM	–	0.284 µM
LNTVKIPNTVSVSTG [Peptide 89.0178]	0.051 µM	0.824 µM	0.065 µM	3.02 µM	3.69 µM	1.14 µM	0.361 µM	12.7 µM	2.58 µM	0.976 µM	5.48 µM	–	–
KNRLTVAKLMSNLLS [Peptide 89.0064]	0.0056 µM	0.021 µM	9.72 µM	0.012 µM	0.58 µM	2.68 µM	0.089 µM	–	0.025 µM	1.58 µM	0.0028 µM	0.014 µM	–
IIHLKGDANILKCLR [Peptide 90.0197]	0.069 µM	0.064 µM	0.026 µM	6.5 µM	2.99 µM	14.1 µM	5.03 µM	–	0.713 µM	–	3.05 µM	0.066 µM	2.46 µM
CC[C@H](C)[C@H](NC(=O)[C@H](Cc1c[nH]cn1)NC(=O)[C@H](C)NC(=O)[C@H](Cc1ccc(O)cc1)NC(=O)[C@H](CC(C)C)NC(=O)[C@@H](NC(=O)[C@H](C)NC(=O)[C@@H]1CCCN1C(=O)[C@H](CCCCN)NC(=O)[C@@H](NC(=O)[C@H](CC(C)C)NC(=O)[C@@H](NC(=O)[C@H](CCCCN)NC(=O)[C@@H](N)Cc1ccccc1)[C@@H](C)O)[C@@H](C)CC)[C@@H](C)O)C(=O)N[C@@H](CCC(N)=O)C(=O)O [Peptide 89.0082]	0.023 µM	0.123 µM	0.825 µM	0.014 µM	–	0.57 µM	0.084 µM	–	0.02 µM	0.0055 µM	–	0.045 µM	2.43 µM
HKAIELQMALKGLAQ [Peptide 90.0004]	0.0021 µM	0.0067 µM	0.032 µM	3.31 µM	0.038 µM	–	0.293 µM	6.58 µM	0.001 µM	0.01 µM	–	–	0.057 µM
GKSYFGMSLIQFLKG [Peptide 89.0075]	0.014 µM	0.456 µM	8.83 µM	1.31 µM	1.56 µM	0.073 µM	0.499 µM	–	0.372 µM	2.96 µM	–	–	0.411 µM
WKLIRMECAIMYTAR [Peptide 90.0245]	–	0.328 µM	0.203 µM	0.768 µM	9.17 µM	4.87 µM	0.195 µM	2.11 µM	0.027 µM	–	4.61 µM	–	1.24 µM
MLAVFKDTYGLSFTD [Peptide 90.0050]	–	0.829 µM	0.045 µM	> 20 µM	7.94 µM	1.57 µM	7.43 µM	–	> 20 µM	2.29 µM	–	1.24 µM	18.3 µM
